Results: patent US20210169690A1, “Self-Retaining Implantable Drug Delivery Device” (GoldenBiotech, LLC, priority 2019, published 2021)

How the values were obtained:
Assay type in all cases: physicochemical
[1] = Korsmeyer-Peppas analysis of drug release data; settings: for Average n Values, Korsmeyer-Peppas Analysis, Mean: Mean over drug loadings
Description: To confirm the results obtained based on the Higuchi equation analysis, the data above was also analyzed using the Korsmeyer-Peppas plot, which evaluates the mechanism of drug release by plotting the log of percent drug released over the log time in hours. If n equals 0.45, then Fickian diffusion is indicated for a cylinder (0.42 for cylinder of low aspect ratio). […] As exemplified FIG. 11, data is plotted as the log of cumulative percent drug released on the y-axis and the log time in hours on the x-axis.

[2] = Higuchi equation analysis of drug release data
Description: In order to ascertain whether the mechanism of drug release was based on diffusion, data obtained from various coated silicone polymer matrices were analyzed using the Higuchi equation. This analysis determined the linearity between the cumulative amount of drug released and the square root of time (SQRT). […] As exemplified FIG. 10, data is plotted as the square root of time taken on the x-axis and the cumulative percentage of drug release on the y-axis.

[3] = Visual examination of physical appearance and mixing of drug-loaded silicone polymer matrix test samples
Source text: To test the loading capacity of a silicone elastomer polymer matrix for a prostaglandin analogue, polymer matrix with different amounts and types of a prostaglandin analogue were made and the physical and mechanical properties of the resulting polymerized drug-loaded matrix were characterized (Tables 1-3). These polymer matrix test samples were made by mixing together a prostaglandin analogue, a liquid cyclic vinyl siloxane elastomer, a crosslinker, and a catalyst using a high-speed mixer and then heated the capped container at 70° C. for 24 hours to cure the mixture. A filler, such as a fumed silica, was also used to provide sufficient mechanical strength to the polymerized matrix. In addition, an inhibitor was used to slow the crosslinking reaction to a workable rate. The resulting thin-disc-shaped drug-loaded polymer matrix was allowed to cool to room temperature and then placed in 4° C. for 24 hours to increase stiffness of the material. The physical appearance of each drug-loaded polymer matrix test sample was examined visually and its mechanical properties analyzed using a durometer.

[4] = In vitro drug release from silicone polymer matrix test samples in PBS pH 7.4 at 37° C., RPHPLC; settings: for Daily Release Rate: 25% Latanoprost matrix plug, PTFE Thread Seal Tape coat, two 18G depot channels
Description: To test the controlled release properties of the disclosed drug-loaded silicone polymer matrices, the effects of a coating were examined. In these experiments, test samples were made as described in Example 1 to produce thin-disc-shaped drug-loaded polymer matrix. From this material, test samples were prepared by 1) cutting out rectangular polygons of about 3 mm length, about 1 mm width and about 1 mm height were cut from polymerized drug-loaded material; or 2) cutting out cylindrical plugs of about 3 mm length and having a diameter of about 0.5 mm to about 1 mm. The weight of the test samples were in the range about 0.1 mg to about 4 mg.
Certain of these cut test samples were then coated using one of three procedures. Cut test samples were coated with a polymer like poly(p-xylylene) (PARYLENE) to a thickness of about 0.10 μm to about 0.95 μm using a vapor phase deposition procedure. Similarly, cut test samples were coated a metal like titanium to a thickness of about 0.10 μm to about 0.95 μm using a vapor phase deposition procedure. Alternatively, cut test samples were physically wrapped with a tape like polytetrafluoroethylene tape and sealed using cyanoacrylate adhesive.
The presence of opening in a coated test sample was also examined. In these experiments, coated test samples were punctured to produce opening through the coating layer. From one to four opening were made using the tip of an 18G, 23G, 27G or 31G needle. Two types of opening were produced 1) surface pores which created openings only through the coating layer but left the polymer matrix intact; and 2) depot channels which created a tunnel through the entire coated test sample from one end to the other end.
To examine the drug release properties of a test sample, each sample was placed in 2 mL Eppendorf tube containing 1.5 mL of Phosphate Buffered Saline, pH 7.4 (PBS). These tubes were slowly rocked at 37° C. in an incubator. At given time points the PBS was completely removed from the tube and refilled with fresh PBS. An aliquot of the removed PBS was then analyzed by reversed phase HPLC (RPHPLC) to determine the amount of drug released from the test sample during the incubation period. In these experiments, a 10 μL injection of the test sample aliquot was run on an Agilent 1260 Infinity in a reverse phase isocratic mode using UV detection at 210 nm. The column was a Hypersil GOLD Phenyl column, (Dim. (mm) 250×4.6) and the mobile phase was a 1:1 mixture of acetonitrile to aqueous buffer (comprising HPLC grade water mixed with 5 mM ammonium acetate and 0.02% formic acid). The flow rate was 1.2 mL/min and column temperature was 22° C. Peak detection and quantitation was determined by establishing a calibration curve using known amounts of each drug tested and the amount of drug present in the test sample aliquot interpolated from this calibration curve using ChemStation software.

[5] = Modified Higuchi plot (2A versus Q^2/T)
Description: Travoprost and Latanoprost are oily liquids at room temperature whereas Bimatoprost is a solid at room temperature. To determine whether the liquid versus solid phase of these drugs affects their release from the silicone polymer matrix, data was analyzed using an alternative plot based on the Higuchi equation where twice the drug loading value (2A) is plotted on the […] and the average slope of the plot of cumulative drug released squared versus time in hours (Q^2/T) is plotted on the […].

[6] = Chemical stability of prostaglandin analogues in PBS, RPHPLC; settings: PBS at pH 4, 7 and 10; 4° C., 33° C. and 50° C.
Description: The chemical stability of prostaglandin analogues was also examined. In these experiments, a prostaglandin analogue was incubated in phospho-buffered saline (PBS) at pH 4, 7 and 10 and at 4° C., 33° C. and 50° C. representing long term storage, eye temperature and accelerate temperature conditions respectively. Analyses were performed by RPHPLC as described in Example 2, noting any hydrolysis products formed. […] This stability is most likely due to the amide linkage in Bimatoprost which is much more hydrolytically stable than the ester linkage in Latanoprost and Travoprost.

CC(C)OC(=O)CCC/C=C\C[C@@H]1[C@@H](CC[C@@H](O)CCc2ccccc2)[C@H](O)C[C@@H]1O [Latanoprost]
Average n Values, Korsmeyer-Peppas Analysis ([1]; Drug Loading 5%): 0.504± | Average n Values, Korsmeyer-Peppas Analysis ([1]; Drug Loading 10%): 0.501± | Average n Values, Korsmeyer-Peppas Analysis ([1]; Drug Loading 15%): 0.712± | Average n Values, Korsmeyer-Peppas Analysis ([1]; Drug Loading 20%): 1.200± | Average n Values, Korsmeyer-Peppas Analysis, Mean [1]: 0.57 ± 0.16 | Average Linear Regression r^2 Value, Higuchi Equation Analysis ([2]; Drug Loading 5%): 0.964 | Average Linear Regression r^2 Value, Higuchi Equation Analysis ([2]; Drug Loading 10%): 0.983 | Average Linear Regression r^2 Value, Higuchi Equation Analysis ([2]; Drug Loading 15%): 0.990 | Average Linear Regression r^2 Value, Higuchi Equation Analysis ([2]; Drug Loading 20%): 0.990 | physical examination of test sample ([3]; 25% Latanoprost test sample): exhibited more elasticity but had a surface with tacky attributes and a consistency that was not fully homogeneous | Daily Release Rate ([4]; day 7): 3.86 µg/day | Daily Release Rate ([4]; day 19): 5.68 µg/day | Daily Release Rate ([4]; day 29): 3.60 µg/day | Daily Release Rate ([4]; day 64): 5.11 µg/day | Daily Release Rate ([4]; day 71): 8.13 µg/day | Daily Release Rate ([4]; day 106): 2.82 µg/day | Daily Release Rate ([4]; day 122): 1.18 µg/day | period of near zero order release ([4]; coated test sample, 25% Latanoprost, four surface pores): 42 days | total amount of drug released ([4]; coated test sample, 25% Latanoprost, four surface pores, as of 140 days): 2.2% | release profile ([4]; uncoated silicone polymer matrix loaded with 10% Latanoprost, FIG. 5): rapid release of the drug over the first five days, which then tapers off and by day 12 shows no further significant release of Latanoprost

CCNC(=O)CCC/C=C\C[C@@H]1[C@@H](/C=C/[C@@H](O)CCc2ccccc2)[C@H](O)C[C@@H]1O [Bimatoprost]
Average n Values, Korsmeyer-Peppas Analysis ([1]; Drug Loading 1%): 0.326± | Average n Values, Korsmeyer-Peppas Analysis ([1]; Drug Loading 2.5%): 0.372± | Average n Values, Korsmeyer-Peppas Analysis ([1]; Drug Loading 5%): 0.411± | Average n Values, Korsmeyer-Peppas Analysis ([1]; Drug Loading 10%): 0.377± | Average n Values, Korsmeyer-Peppas Analysis ([1]; Drug Loading 15%): 0.380± | Average n Values, Korsmeyer-Peppas Analysis ([1]; Drug Loading 20%): 0.601± | Average n Values, Korsmeyer-Peppas Analysis, Mean [1]: 0.37 ± 0.08 | average slope of cumulative drug released squared versus time in hours (Q^2/T) ([5]; Loading (A %) 1.0): 0.204 ± 0.035 | average slope of cumulative drug released squared versus time in hours (Q^2/T) ([5]; Loading (A %) 2.5): 0.387 ± 0.009 | average slope of cumulative drug released squared versus time in hours (Q^2/T) ([5]; Loading (A %) 5.0): 1.680 ± 0.232 | average slope of cumulative drug released squared versus time in hours (Q^2/T) ([5]; Loading (A %) 10): 2.327 ± 0.252 | relationship of Q^2/T to 2A in modified Higuchi plot ([5]; Table 10, FIG. 12 and FIG. 13): linear relationship | chemical stability (hydrolysis products) [6]: excellent stability with Bimatoprost being the most stable | Average Linear Regression r^2 Value, Higuchi Equation Analysis ([2]; Drug Loading 1%): 0.992 | Average Linear Regression r^2 Value, Higuchi Equation Analysis ([2]; Drug Loading 2.5%): 0.995 | Average Linear Regression r^2 Value, Higuchi Equation Analysis ([2]; Drug Loading 5%): 0.997 | Average Linear Regression r^2 Value, Higuchi Equation Analysis ([2]; Drug Loading 10%): 0.988 | Average Linear Regression r^2 Value, Higuchi Equation Analysis ([2]; Drug Loading 15%): 0.994 | Average Linear Regression r^2 Value, Higuchi Equation Analysis ([2]; Drug Loading 20%): 0.972 | mixing in the liquid siloxane elastomer ([3]; 15% or 20% Bimatoprost test samples): difficult to mix in the liquid siloxane elastomer | physical examination of test sample ([3]; 20% Bimatoprost test sample): brittle and contained clumps of unincorporated components from the mixture
